How the values were obtained:
[1] = LiverChip technology; cited from earlier work
[2] = system: gut MPS and liver MPS on-platform; assay: Drug and metabolite concentration-time profiles on the multi-MPS platform; format: in vitro ADME, human; details: Gut only arm
[3] = system: liver MPS cells; assay: Liver MPS intracellular accumulation; format: in vitro ADME, human; details: 72h after dosing; Gut / Liver and Liver only arms
[4] = fixed model parameter, same value in all arms; cited from earlier work
[5] = Intrinsic metabolic clearance of the liver MPS on the multi-MPS platform; format: in vitro ADME, human; details: human
[6] = system: liver MPS (human primary cryopreserved hepatocytes and Kupffer cells); assay: as above; format: in vitro ADME; details: posterior mean (SD)
[7] = system: human hepacyte cultures; details: human hepatocyte cultures; cited from earlier work

time at which concentration-time profiles reach a plateau ([2]; after the dose) | intracellular accumulation in liver MPS (Kp, cells vs liver compartment medium) [3] | hepatocyte CLint at 40 μM [5] [µL/min/1e6 cells] | CLintl (intrinsic metabolic DCF clearance of the liver MPS) ([6]; Gut / Liver arm, 40 μM DCF to gut apical side) | CLintl (intrinsic metabolic DCF clearance of the liver MPS) ([6]; Liver only arm, 40 μM DCF to mixing chamber) | 4-OH-DCF levels (mixing chamber concentration) ([2]; after 40 μM DCF dose) [µM] | Structure (SMILES) | non-specific binding to PSF [1] | fum (DCF fraction unbound in circulating common medium) [4] | Clintl [7] [μL/min/10^6 cells]
approximately 24 hours | substantial | 17 | 10.18 (0.46) μL/min | 8.99 (0.20) μL/min | – | O=C(O)Cc1ccccc1Nc1c(Cl)cccc1Cl [DCF, diclofenac] | absence of non-specific binding | 0.13 | 17.8
– | substantial | – | – | – | < 0.05 | O=C(O)Cc1ccccc1Nc1c(Cl)cc(O)cc1Cl [4-OH-DCF, 4-hydroxy-diclofenac] | – | – | –

Reference: article PMC6540747 (The AAPS journal, 2017)
